For data set [1], the target named is T1, Gal-4 (Homo sapiens, UniProt P56470).
T1 construct: made in house; host or cells: Escherichia coli Rosetta (DE3) pLysS
T1 sequence (P56470 1-323): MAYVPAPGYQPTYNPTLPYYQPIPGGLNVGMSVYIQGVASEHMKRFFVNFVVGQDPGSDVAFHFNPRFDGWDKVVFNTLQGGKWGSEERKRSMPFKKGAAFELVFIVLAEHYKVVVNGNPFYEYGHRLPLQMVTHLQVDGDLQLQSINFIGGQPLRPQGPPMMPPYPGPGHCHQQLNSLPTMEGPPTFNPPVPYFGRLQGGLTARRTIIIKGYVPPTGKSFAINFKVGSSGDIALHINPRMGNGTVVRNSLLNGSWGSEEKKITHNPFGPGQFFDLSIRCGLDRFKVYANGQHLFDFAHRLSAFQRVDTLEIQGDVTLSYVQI
Put plainly: competitive ELISA, inhibition of binding of whole Gal-4 to immobilized ASF. As to conditions: for IC50: competitive ELISA, Gal-4 2.5 µM, immobilized ASF; for rp, relative potency (IC50 (lactose)/IC50 (ligand)): whole Gal-4. The protocol:
(§1) To design the ELISA method, we first examined the direct binding of the whole Gal-4, Gal-4NL, and Gal-4-CL to standard glycoprotein asialofetuin (ASF, MW 48.4 kDa), which carries up to nine LacNAc epitopes. The ASF was immobilized by hydrophobic interaction in microtiter-plate wells, and the binding of increasing concentrations of Gal-4 proteins was quantified by colorimetric immunodetection using horseradish peroxidase conjugated to an anti-His-tag antibody. The apparent dissociation constants (KD) were calculated from the non-linear regression of the binding curves (Figure 3). […] While for the Gal-4 ELISA measurement we used the concentration of Gal-4 of 2.5 μM, for both subunits, it was 25 μM. […] The Gal-4 proteins were incubated with increasing concentrations of the respective inhibitors, and the concentration-dependent inhibition of the binding to the immobilized ASF was quantified using spectrophotometric colorimetric immunodetection (HRP-conjugated anti-His-tag antibody). The respective half-maximal inhibition constants (IC50) were calculated from the non-linear regression of the sigmoidal curves (Figure 3), and they are shown in Table 2 and Table 3.
(§2) Each incubation step was followed by washing the wells with 3 × 250 µL phosphate-buffered saline (PBS) containing 0.05% Tween® 20. In total, 0.1 µM ASF in PBS (50 µL/well) was coated onto microtiter plates (Nunc Immuno Sorb, ThermoFisher Scientific, Waltham, MA, USA) overnight. After blocking the wells with 2 mg/mL bovine serum albumin (BSA) in PBS buffer (250 µL/well, 1 h), serial dilutions of the inhibitors in PBS buffer containing 2 mM EDTA (EPBS) were incubated with Gal-4 (2.5 µM final dimer concentration) or its subunits, Gal-4CL and Gal-4NL (25 µM final monomer concentration) for 2 h (50 µL/well). The residual bound galectin was labeled with an anti-His-antibody conjugated with horseradish peroxidase (HRP) (Santa Cruz Biotechnology, Heidelberg, Germany; 1:999 dilution in PBS). The colorimetric reaction with TMB One substrate solution (Kem-En-Tec, Taastrup, Denmark; 50 µL/well) was stopped with 3 M hydrochloric acid (HCl) (50 µL/well) and quantified spectrophotometrically at 450 nm (Sunrise; Tecan Group Ltd., Männedorf, Switzerland). The values of half-maximal inhibitory concentrations (IC50) were calculated by non-linear regression (dose–response inhibition-variable slope) of sigmoidal curves from a minimum of three independent experiments using GraphPad Prism 8.4.3 (GraphPad Software, San Diego, CA, USA).

For data set [2], the target named is T2, Gal-4NL (Homo sapiens, UniProt P56470).
T2 construct: designated as Gal-4NL (aa 1-160), and Gal-4CL (aa 169-323), respectively; made in house; host or cells: E. coli Rosetta (DE3) pLysS
T2 sequence (P56470 1-160): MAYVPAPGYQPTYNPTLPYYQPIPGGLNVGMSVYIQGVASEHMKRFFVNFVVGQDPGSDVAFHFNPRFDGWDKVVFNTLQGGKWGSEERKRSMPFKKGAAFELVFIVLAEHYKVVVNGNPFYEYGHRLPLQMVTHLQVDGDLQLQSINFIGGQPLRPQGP
Put plainly: competitive ELISA, inhibition of binding of Gal-4NL subunit to immobilized ASF. The note with it: for IC50: competitive ELISA, Gal-4NL 25 µM, immobilized ASF. The protocol:
as §1, §2
In general terms: In an ELISA, binding on a coated surface is turned into a signal by an enzyme label.

Data set [3] concerns the target T3, Gal-4CL (Homo sapiens, UniProt P56470).
T3 construct: designated as Gal-4NL (aa 1-160), and Gal-4CL (aa 169-323), respectively; made in house; host or cells: E. coli Rosetta (DE3) pLysS
T3 sequence (P56470 169-323): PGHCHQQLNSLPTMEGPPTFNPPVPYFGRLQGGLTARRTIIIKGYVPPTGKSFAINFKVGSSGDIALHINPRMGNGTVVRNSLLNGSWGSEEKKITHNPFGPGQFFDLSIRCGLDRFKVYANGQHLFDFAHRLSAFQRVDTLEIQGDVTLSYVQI
The experiment in a line: competitive ELISA, inhibition of binding of Gal-4CL subunit to immobilized ASF. The note with it: for IC50: competitive ELISA, Gal-4CL 25 µM, immobilized ASF. The method, then: as §1, §2

The next data set addresses Gal-4N. Also on record: method as in PMID 26828567, PMID 26077389. As to conditions: fluorescence anisotropy, read-out: binding constant; cited from earlier work.
The next data set deals with Gal-4C. Also on record: method as in PMID 26828567, PMID 26077389. The note with it: fluorescence anisotropy, read-out: binding constant; cited from earlier work. In general terms: Fluorescence polarisation rises when a labelled molecule tumbles more slowly, as on binding a larger partner.
In data set [4] the target is Gal-4NL. Also on record: method as in PMID 33968903. The note with it: ITC; cited from earlier work. (In general: In ITC the heat of successive injections is recorded.)
Data set [5] has as its target T1, Gal-4. Put plainly: direct ELISA, binding of whole Gal-4 to immobilized ASF. The note with it: read-out: apparent KD. The protocol:
(§3) To design the ELISA method, we first examined the direct binding of the whole Gal-4, Gal-4NL, and Gal-4-CL to standard glycoprotein asialofetuin (ASF, MW 48.4 kDa), which carries up to nine LacNAc epitopes. The ASF was immobilized by hydrophobic interaction in microtiter-plate wells, and the binding of increasing concentrations of Gal-4 proteins was quantified by colorimetric immunodetection using horseradish peroxidase conjugated to an anti-His-tag antibody. The apparent dissociation constants (KD) were calculated from the non-linear regression of the binding curves (Figure 3). […] The Gal-4 proteins were incubated with increasing concentrations of the respective inhibitors, and the concentration-dependent inhibition of the binding to the immobilized ASF was quantified using spectrophotometric colorimetric immunodetection (HRP-conjugated anti-His-tag antibody). The respective half-maximal inhibition constants (IC50) were calculated from the non-linear regression of the sigmoidal curves (Figure 3), and they are shown in Table 2 and Table 3.
(§4) The apparent dissociation constant (KD) of binding of the whole Gal-4 or its subunits to ASF was determined using direct enzyme-linked immunosorbent assay (ELISA), with washing steps as specified above. […] Residual galectins bound to the wells were labeled with anti-His-antibody conjugated with HRP, and evaluated as above.

In data set [6] the target is T2, Gal-4NL. Put plainly: direct ELISA, binding of Gal-4NL to immobilized ASF. As to conditions: read-out: apparent KD. The method, then: as §3, §4
Data set [7] deals with T3, Gal-4CL. The experiment in a line: direct ELISA, binding of Gal-4CL to immobilized ASF. As to conditions: read-out: apparent KD. The protocol:
as §3, §4

Data set [8] concerns the molecule itself. The experiment in a line: dynamic light scattering; Gal-4 and its subunits at 25 µM, 25 °C, Zetasizer Nano S90; size distribution by intensity and by volume.
For data set [9], the target named is T4, asialofetuin (standard glycoprotein, MW 48.4 kDa) (UniProt P12763 19-359, glycoprotein without sialic acid; carries up to nine LacNAc epitopes).
T4 construct: Asialofetuin (desialylated fetuin), MW 48.4 kDa; Commercial asialofetuin is commonly from fetal calf serum; also called ASF
T4 sequence (looked up): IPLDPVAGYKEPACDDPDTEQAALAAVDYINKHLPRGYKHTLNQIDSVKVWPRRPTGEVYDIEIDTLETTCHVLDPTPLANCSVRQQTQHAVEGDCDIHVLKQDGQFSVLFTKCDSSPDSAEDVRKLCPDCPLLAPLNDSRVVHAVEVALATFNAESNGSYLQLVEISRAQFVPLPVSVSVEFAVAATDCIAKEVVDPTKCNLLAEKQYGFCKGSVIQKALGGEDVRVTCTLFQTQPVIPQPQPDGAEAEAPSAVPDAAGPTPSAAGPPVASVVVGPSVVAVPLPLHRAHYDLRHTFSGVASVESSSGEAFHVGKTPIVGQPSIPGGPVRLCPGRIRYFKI
Put plainly: ELISA; direct ELISA; ASF (0.1 µM in PBS) coated on microtiter plate overnight, blocked with BSA; increasing concentrations of Gal-4 or its subunits, 2 h; detected with HRP-conjugated anti-His antibody; apparent KD from non-linear regression. The note with it: both partners purified.

The target of data set [10] is T5, lactosyl-decorated neo-glycoprotein 12 (human serum albumin carrier) (human, UniProt P02768 25-609, 9.6 lactosyl residues (MALDI-TOF, 72,151 Da) attached by a thiourea linker and diethyl-squarate linkage; sites not stated).
T5 construct: Human serum albumin, carrier of the synthetic lactosyl ligands; source: HSA coupled with squarate monoamide ester 11 (tetraborate buffer pH 9.0, 72 h), washed with water by ultracentrifugation
T5 sequence (P02768 25-609): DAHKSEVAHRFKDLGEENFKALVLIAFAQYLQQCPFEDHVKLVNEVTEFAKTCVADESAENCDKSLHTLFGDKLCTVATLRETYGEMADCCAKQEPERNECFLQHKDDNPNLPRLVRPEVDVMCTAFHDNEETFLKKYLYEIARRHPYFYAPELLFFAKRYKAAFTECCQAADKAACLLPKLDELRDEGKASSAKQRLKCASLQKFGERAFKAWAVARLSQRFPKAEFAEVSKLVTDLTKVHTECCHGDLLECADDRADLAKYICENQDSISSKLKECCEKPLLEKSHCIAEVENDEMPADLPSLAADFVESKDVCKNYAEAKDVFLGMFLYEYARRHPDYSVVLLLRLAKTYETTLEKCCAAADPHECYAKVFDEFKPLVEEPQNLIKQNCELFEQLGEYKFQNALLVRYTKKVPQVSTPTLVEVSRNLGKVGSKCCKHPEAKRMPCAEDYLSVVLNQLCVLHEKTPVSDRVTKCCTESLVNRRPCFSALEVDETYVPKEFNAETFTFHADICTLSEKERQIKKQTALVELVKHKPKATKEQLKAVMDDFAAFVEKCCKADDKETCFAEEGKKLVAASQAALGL
The experiment in a line: BLI; His-tagged galectins (2 µg/mL, PBS with 0.05% Tween-20) immobilised on Ni-NTA biosensors; serially diluted neo-glycoprotein 12 in solution; 25 °C, 800 rpm; steady-state analysis. As to conditions: both partners purified.

Broadly, the IC50 is the concentration that inhibits the measured activity by half. Low readings indicate greater potency, high ones weaker potency.

As to `CC(=O)N[C@H]1[C@@H](O[C@H]2[C@@H](O)[C@@H](CO)O[C@@H](O[C@H]3[C@H](O)[C@@H](O)C(O)O[C@@H]3CO)[C@@H]2O[C@@H]2O[C@@H](C)[C@@H](O)[C@@H](O)[C@@H]2O)O[C@H](CO)[C@H](O)[C@@H]1O` (stereo partly drawn) [blood-group antigen A (5), blood-group antigen A type 6], the figures for the IC50 at Gal-4 [1], on Gal-4NL [2] and on Gal-4CL [3] were 50 ± 20 µM, 22 ± 1 µM and 27 ± 5 µM, respectively. Besides, the “rp, relative potency (IC50 (lactose)/IC50 (ligand))” value at Gal-4 [1] was determined as 48. The “rp Gal-4NL, relative potency (IC50 (lactose)/IC50 (ligand))” value on Gal-4NL [2] (Gal-4NL) was determined as 130. For the same molecule, at Gal-4NL [2] (Gal-4NL, ELISA), the “fold stronger inhibitor of Gal-4NL than blood-group antigen B” value is given as 12 fold. At Gal-4CL [3], the “rp Gal-4CL, relative potency (IC50 (lactose)/IC50 (ligand))” value came out at 320. Moreover, the Kd at Gal-4N was 164 µM; at Gal-4C, 75 µM; at Gal-4NL [4], 86 µM.
On to `C[C@@H]1O[C@@H](O[C@H]2[C@H](O[C@H]3[C@H](O)[C@@H](O)C(O)O[C@@H]3CO)O[C@H](CO)[C@H](O)[C@@H]2O[C@H]2O[C@H](CO)[C@H](O)[C@H](O)[C@H]2O)[C@@H](O)[C@H](O)[C@@H]1O` (stereo partly drawn) [blood-group antigen B (6), blood-group antigen B type 6], for which the figures for the IC50 on Gal-4 [1], on Gal-4NL [2] and on Gal-4CL [3] were 80 ± 30 µM, 260 ± 10 µM and 300 ± 30 µM, respectively. Also, at Gal-4 [1], the “rp, relative potency (IC50 (lactose)/IC50 (ligand))” value turned out to be 31. Further, the “rp Gal-4NL, relative potency (IC50 (lactose)/IC50 (ligand))” value at Gal-4NL [2] (Gal-4NL) amounted to 11. Also, at Gal-4CL [3], the “rp Gal-4CL, relative potency (IC50 (lactose)/IC50 (ligand))” value stood at 28. Moreover, the Kd on Gal-4NL [4] was 51 µM.
On to asialofetuin [ASF], for which the figures for the Kd with Gal-4 [5], with Gal-4NL [6] and in the data set with Gal-4CL [7] were 3.3 ± 1.1 µM, 38 ± 3 µM and 19 ± 2 µM, respectively.

B1: C-terminal subunit of Gal-4 with 10 linker residues (Gal-4CL, aa 169-323) (domain or fragment, human, UniProt P56470 169-323, looked up)
chain: PGHCHQQLNSLPTMEGPPTFNPPVPYFGRLQGGLTARRTIIIKGYVPPTGKSFAINFKVGSSGDIALHINPRMGNGTVVRNSLLNGSWGSEEKKITHNPFGPGQFFDLSIRCGLDRFKVYANGQHLFDFAHRLSAFQRVDTLEIQGDVTLSYVQI
notes: Galectin-4, human, C-terminal CRD (aa 179-323) with 10 further residues of the inter-domain linker at the N-terminus (aa 169-323); made by PCR from the Gal-4 plasmid, NdeI/XhoI; not shown: His6, N-terminal, kept
As for B1, the binding result in data set [8] is reported as “binds”. Moreover, in [9], the Kd was determined as 19 ± 2 µM.

B2: N-terminal subunit of Gal-4 with 10 linker residues (Gal-4NL, aa 1-160) (domain or fragment, human, UniProt P56470 1-160, looked up)
chain: MAYVPAPGYQPTYNPTLPYYQPIPGGLNVGMSVYIQGVASEHMKRFFVNFVVGQDPGSDVAFHFNPRFDGWDKVVFNTLQGGKWGSEERKRSMPFKKGAAFELVFIVLAEHYKVVVNGNPFYEYGHRLPLQMVTHLQVDGDLQLQSINFIGGQPLRPQGP
notes: Galectin-4, human, N-terminal CRD (aa 1-150) with 10 further residues of the inter-domain linker at the C-terminus (aa 1-160); made by PCR from the Gal-4 plasmid, NdeI/XhoI; not shown: His6, N-terminal, kept
In the case of B2, the Kd is 1 ± 0.2 µM in data set [10] and 38 ± 3 µM in data set [9].

The values above are taken from article PMC10223884, “Oligosaccharide Ligands of Galectin-4 and Its Subunits: Multivalency Scores Highly” (Molecules, 2023).
